In patent US11760722B2 (priority 2022, dated 2023):

Test system: SARS-CoV-2 Delta USA/MD-HP05647/2021 (Lineage B.1.617.2)
Assay: microbe, parasite or virus in culture
Format: cell-based
Settings: Severe acute respiratory syndrome coronavirus 2, Vero C1008, 4 h; read-out: Vero E6 Delta CPE/EC50

Compound: CC(C)(C)[C@H](NS(=O)(=O)c1ccc(C2CC2)cc1)C(=O)N1C[C@H]2[C@@H]([C@H]1C(=O)N[C@H](C#N)C[C@@H]1CCNC1=O)C2(C)C [Compound 121]
- EC50: < 4.5 nM
